Values of other authors as cited in patent US20250257354A1, “METHODS AND COMPOSITIONS RELATED TO TRNA THERAPEUTICS FOR TREATING VISION LOSS” (UNIVERSITY OF IOWA RESEARCH FOUNDATION, priority 2022, published 2025).

Conditions: ACT DMD Phase 3 NCT01826487; ACT CF NCT02139306

Q: Which “efficacy in patient populations” value does the source give for `O=C(O)c1cccc(-c2noc(-c3ccccc3F)n2)c1` [Ataluren] here?
A: The value was “unexpectedly low efficacy”.
